The text below walks through data of a melting point compilation (Tetko et al.; mined from patent text by program, amines drawn as free bases though some values may be those of a salt).

The structures appear in SMILES notation.

The melting point is the temperature, or range, at which the solid turns liquid. As to `Cc1ccc(S(=O)(=O)OCC2Cc3cccc(-c4ccc(F)cc4F)c3O2)cc1` (centres undefined), the melting point lay within 116 to 118 °C.
`O=C(O)c1cn2c3c(ccc([N+](=O)[O-])c3c1=O)C1CCCCC12` (centres undefined) gave a melting point of 251 to 253 °C.
`NC(=O)c1ccc(OC2CCN(Cc3ccccc3)CC2)cc1`: the melting point lay in the range of 166 to 168 °C.
With `FC1=CC(c2cccnc2)=CC2CCC(=S)NC12` (centres undefined) the figure was 235 °C.
On to `CC(C)NC(=O)N1C2=NC(C)(C)N(C)C(=O)N2c2ccccc21`, for which the melting point was in the range of 93 to 96 °C.
In turn, `O=C(c1cccs1)c1scc(Br)c1Br` had a melting point of 105 to 109 °C.
With `CCn1c(=O)n(CC)c2cc3c(N4CCN(C(=O)Nc5ccc(Oc6ccccc6)cc5)CC4)nncc3cc21` the figure was 125 to 128 °C; with `OCc1cc(Cl)cc(CO)c1O`, 161 to 163 °C; with `CCn1c2ccccc2c2cc(-n3c(CC(=O)O)c(C(=O)O)c4cc(Oc5ccc(C(F)(F)F)cc5)ccc43)ccc21`, 243 to 245 °C.
In turn, `CCCC(=O)NCCC1=C(Cc2ccccc2)Cc2ccc(OC)cc21` showed a melting point of 127 to 129 °C.
As for `O=C(Nc1cccc(C(F)(F)F)c1)C1C(=O)C2CCC(C2)C1=O` (centres undefined), the melting point is 68 to 69 °C.
The compound `Cc1ccc(-c2ccc(C(=O)Nc3cc4ncc(CN5CCCC5)cc4cc3C)cn2)cc1` gave a melting point of 214 to 218 °C.
On to `CN(C)S(=O)(=O)c1cc(-n2c(=O)cc(C(F)(F)F)n(C)c2=O)ccc1Cl`, for which the melting point lay within 194 to 196 °C.
To `CCCCNC(=O)C(C)CC(O)C1C[C@H](C)CCCCCCNc2cc(cc(OC)n2)C(=O)N1` (some centres undefined) belongs 178 to 182 °C; to `CC(C)(CO)c1ccc(Cl)cc1`, 46 to 48 °C; to `Cc1cc(C(=O)NS(=O)(=O)c2ccccc2Cl)nc(Cl)n1`, 170 to 171 °C.
To `C=CCN(c1ccccc1)c1cc2c(cc1N(CC=C)c1ccccc1)C(=O)NC2=O` belongs 122 to 127 °C; to `CC(C)(C)OC(=O)c1ncn2c1[C@@H]1CCCN1C(=O)c1c-2ccc(F)c1Cl`, 211 to 212 °C.
`CON1CCC2(CC1)C(=O)C(Cl)(c1cc(C)c(C)cc1Cl)C(=O)N2C` (centres undefined) showed a melting point of 93 to 94 °C.
With `CCC(NC(=O)OC)c1ccc(Cl)c2nc3n(c12)CCCN3c1c(Cl)cc(Cl)cc1Cl` (centres undefined) the figure was 231 to 233 °C; with `CC(=O)OC1CSC(Oc2ccc(-c3cccnc3)cc2F)C(OC(C)=O)C1OC(C)=O` (centres undefined), 122 °C.
With `CC(NC(=O)NC1N=C(c2ccccc2)c2ccccc2N(C)C1=O)c1ccccc1` (centres undefined) the figure was 146 to 150 °C.
`CCNc1cc(O)c(C(=O)c2ccccc2C(=O)O)cc1C` yielded a melting point of 200 to 202 °C.
In turn, `NC(=O)c1c(CN2CCC(c3ccccc3)(c3ccccc3)CC2)ncn1Cc1ccc(Cl)cc1` showed a melting point of 227 to 228 °C.
To `NS(=O)(=O)c1ccc(N2CCN(Cc3cn4cc(Cl)ccc4n3)CC2)cc1` belongs 255 to 256 °C.
With `O=C(O)c1c(C(F)(F)F)nc2c(C(F)(F)F)cccc2c1O` the figure was 188 °C; with `CCOc1c(Nc2cccnc2)c(=O)c1=O`, 140 to 145 °C; with `BrC(Br)Cc1ccc(OCc2ccccc2)cc1`, 97 to 98 °C.
To `O=C(Nc1cccnc1)N1CCN(c2cc(-c3ccc(F)cc3)ncn2)CC1` belongs 180 to 182 °C; to `CCCc1nn(-c2ccc(C(F)(F)F)cn2)cc1CCCOc1ccc(CCC(=O)O)c(OCC)c1`, 119 to 120 °C.
`CCOC(=O)/C=C/C=C(c1cccc([N+](=O)[O-])c1)c1cccc([N+](=O)[O-])c1` yielded a melting point of 105 to 106 °C.
In turn, `COc1cc2c(Nc3ccc(Sc4nccn4C)c(Cl)c3)c(C#N)cnc2cc1OCCCCl` came in with a melting point of 271 to 276 °C.
With `CCCCCCCCCCCCCCCCNc1ccc(C(=O)NCC(=O)OCC)cc1` the figure was 97.5 to 99.5 °C; with `O=C(NCC1CC1)Nc1ccc(N2CCOCC2)cc1C(=O)NCC1CCN(C(c2ccccc2)c2ccccc2)CC1`, 218 to 220 °C; with `COC(=O)c1ccc2ncccc2c1C(=O)OC`, 124 to 125 °C.
To `CC(=O)NC[C@H]1CN(c2ccc(N3CCC(O)(CN4CCNCC4)CC3)c(F)c2)C(=O)O1` belongs 175 to 177 °C; to `CCn1cc(C(=O)O)c(=O)c2c(F)c(F)c(N3CCSCC3)c(F)c21`, 308 to 310 °C; to `C[Si](C)(C)c1ccc(O)c(C(=O)C=C(O)c2ccc(C(=O)O)cc2)c1`, 207 to 209 °C.
With `O=c1[nH]cc(C=CBr)c(=O)[nH]1` the figure was above 320 °C.
Turning to `Cc1c(Cl)c(Oc2ccc(C(F)(F)F)cc2[N+](=O)[O-])nn1C(=O)NC(C)C`, the melting point is 89 to 91 °C.
With `COc1ccc(-c2c(C(C)=O)c(CBr)nc3cc(OC)c(OC)cc23)cc1OC` the figure was 181 to 182 °C; with `Clc1ccc(-c2cc(C3CC3)nc(Cl)n2)cc1`, 70 to 72 °C.
With `COCCn1nnc2cc3c(=O)n(C(C)Cn4nccn4)nnc3cc2c1=O` (centres undefined) the figure was 145 to 146 °C.
`CSCc1cccc(-c2nc(=O)c3ccccc3s2)n1`: the melting point fell in the range of 152 to 153 °C.
To `C=CCN1C2CCC1C1CCC2N1C(c1ccc(C(=O)N2CCCCC2)cc1)c1cccc(OC)c1` (centres undefined) belongs 134 to 136 °C.
With `CCCCCCCCCCc1ccc2cc(SC)c(OC)cc2c1` the figure was 49.5 to 50.4 °C.
In the case of `COc1ccccc1Oc1c(NS(=O)(=O)c2cccs2)nc(-c2ncccn2)nc1OCCOc1ncc(Br)cn1`, the melting point was above 300 °C.
For `Cn1nc(C#N)c(Nc2ccc(C(F)(F)F)cc2[N+](=O)[O-])n1`, the melting point lay within 116 to 117 °C.
To `CCOC(=O)c1cc2c(C)c(C)cc(NS(=O)(=O)c3cccs3)c2[nH]1` belongs 161 to 162 °C.
For `Cc1c[nH]c2c([N+](=O)[O-])ccc(C)c2c1=O`, the melting point was in the range of 250 to 262 °C.
With `COc1cc(C=C(C#N)C(=O)NCCC(C)NC(=O)C(C#N)=Cc2cc(O)c(O)c(OC)c2)cc(O)c1O` (centres undefined) the figure was above 300 °C; with `CC(=O)Oc1cc(C(C)(C)C)ccc1C1(OC(C)=O)C(=O)c2ccccc2C1=O`, 119 to 120 °C.
With `C=CCOC(=O)c1cccc(C)c1OS(=O)(=O)NC(=O)Nc1nc(C)cc(OC)n1` the figure was 127 to 128 °C.
`Nc1ccc(S(=O)c2ccc(-c3ccc(Br)cc3)cc2)cc1N` (centres undefined) registered a melting point of 161 to 164 °C.
With `CNC(=O)Nc1snc(C)c1[N+](=O)[O-]` the figure was 249 to 251 °C.
With `COc1cc(C(=O)CBr)cc(OC)c1OC(C)=O` the figure was 124 to 126 °C; with `CNC(=O)CC1CN=C(c2cc3cc(Oc4ccc(COC)nc4)cc(OC)c3[nH]2)S1` (centres undefined), 102 to 104 °C.
Compound `COc1ccc(CNC(=O)c2cc([N+](=O)[O-])ccc2N[C@@H](CO)CCSC)cc1OC` had a melting point of 150 to 152 °C.
To `CCc1sc2c(c1C)c(=O)c1cccc(C(=O)O)c1n2Cc1ccc(-c2ccccc2C#N)cc1` belongs 203 to 205 °C.
`CS(=O)(=O)N1CCN([C@@H](CNC(=O)c2ccc(OCc3ccccc3)cc2)C(=O)NO)CC1` came in with a melting point of 150 °C.
For the compound `O=C1N[C@@H](Cc2ccccc2)C(=O)N/C1=C\c1ccccc1`, the melting point was 275 to 276 °C.
With `O=C(NCc1ccncc1)c1ccnc(N2CCN(Cc3ccc(F)cc3)C2=O)c1` the figure was 205 to 207 °C; with `CC(Cc1ccc(Oc2cc(N3CCN(Cc4ccccc4)CC3)ncn2)cc1)(Oc1ccccc1)C(=O)O` (centres undefined), 107 to 109 °C.
For `COC(=O)C=Cc1ccc(Br)cc1`, the melting point was found to be 80 °C.
In turn, `CCc1ccc(-n2nc(Cl)cc2-c2ccc(S(C)(=O)=O)cc2)cc1[N+](=O)[O-]` showed a melting point of 134 to 135 °C.
With `NC(=Nc1ccc2[nH]c3ccccc3c2c1)c1cccs1` the figure was 243 to 244 °C; with `Cc1cc(C)nc(NC(=O)NS(=O)(=O)c2ccsc2C2=CC(=O)CCC2)n1`, 190 to 192 °C.
With `COC(=O)c1sccc1NC(=O)c1ccccc1SSc1ccccc1C(=O)Nc1ccsc1C(=O)OC` the figure was 250 to 252 °C.
`Cc1cccc2[nH]c(-c3ccccc3[N+](=O)[O-])nc12` returned a melting point of 167 to 168 °C.
For the compound `c1ccc(-c2[nH]c3cc4c(cc3c2-c2ccccc2)OCO4)cc1`, the melting point lay in the range of 187 to 188 °C.
To `O=[N+]([O-])c1cnc2ccccc2c1NCC12CCCN1CCC2` belongs 155 to 158 °C.
In turn, `O=C(COC(=O)Cc1ccccc1Nc1cc2c(cc1Cl)CCC2)OCc1ccccc1` came in with a melting point of 97 to 100 °C.
To `CC(C)(C)OC(=O)NCCCn1c(-c2ccc([N+](=O)[O-])cc2)csc1=Nc1ccccc1` belongs 254 to 257 °C; to `CCc1cc2nc(N)c(-c3ccccc3)cc2c(CC)n1`, 110 to 112 °C; to `CCOC(=O)c1sc(Oc2ccc(C(C)=O)c(OC)c2)c2c1CCc1cnn(C)c1-2`, 132 to 133 °C.
As to `O=S(=O)(c1ccccc1)N1CCCC1c1ccc(C(F)(F)F)cc1` (racemic), the melting point was determined as 95 °C.
To `CCCCNS(=O)(=O)c1ccc(N2CCC(NC[C@H](O)COc3cccc4[nH]c(=O)[nH]c34)CC2)cc1` belongs 69 to 75 °C; to `O=C(O)Cn1c(-c2cccc(F)c2)nc2cccnc21`, 243 to 245 °C.
The compound `Cc1ccc(COc2ncc(F)c(NS(=O)(=O)c3ccc(C)cc3)n2)cc1` had a melting point of 120 to 122 °C.
For the compound `CCCc1c(OCc2ccc(C(=O)O)cc2)ccc(C(C)=O)c1O`, the melting point turned out to be 188 °C.
To `O=C(NCCCN1CCN(c2ccc(F)cc2OCC(F)(F)F)CC1)c1csc2c(=O)cc(-c3ccccc3)oc12` belongs 189 to 191 °C; to `C#Cc1ccc(=O)n(C(C)C)n1`, 103 to 104 °C; to `CC(=O)OCCCN(C)CCCN(C)C(=O)[C@@H]1CCCN1S(=O)(=O)c1ccc(Cl)c(COc2cccc3c(-n4ccnc4)cc(C)nc23)c1Cl`, 90 °C.
In turn, `O=C(NC1CCCCC1)c1c(O)c2cc(F)ccc2n(Cc2ccc(F)cc2)c1=O` had a melting point of 118 °C.
